The values that follow come from patent publication US11174262B2, “Compounds, compositions and methods” (Denali Therapeutics Inc., priority 2017, dated 2021).

Structures are written as SMILES.

Chain of GST-hRIPK1 (8-327) (Q13546 8-327): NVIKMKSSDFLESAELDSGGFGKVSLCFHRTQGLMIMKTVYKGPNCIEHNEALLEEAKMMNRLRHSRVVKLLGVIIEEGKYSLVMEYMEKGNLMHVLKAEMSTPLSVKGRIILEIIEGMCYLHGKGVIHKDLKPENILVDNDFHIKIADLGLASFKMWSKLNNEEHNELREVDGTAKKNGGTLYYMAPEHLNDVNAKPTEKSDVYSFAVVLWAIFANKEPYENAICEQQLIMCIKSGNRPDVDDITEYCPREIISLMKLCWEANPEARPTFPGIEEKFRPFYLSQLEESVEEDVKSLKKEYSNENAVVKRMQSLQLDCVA

The target in this test is GST-hRIPK1 (8-327) (Homo sapiens (Human), UniProt Q13546). The test can be described thus: Fluorescent Polarization Binding (FP Binding) assay, RIPK1. The note with it: 10 nM GST-hRIPK1 (8-327), 5 nM fluorescent-labeled ligand, RT, 30 min, mean of minimum two experiments. How it is done:
Fluorescent Polarization Binding (FP Binding) assay (Berger S. B. et al. (2015) Cell Death Discovery, 1: 15009; Maki J. L. et al. (2012) Anal Biochem., 427 (2): 164-174) was performed in polystyrene low volume 384-well black plate, at Room Temperature (RT) in a final volume of 10.1 μL/well using 10 nM of GST-hRIPK1 (8-327) enzyme and 5 nM of fluorescent-labeled ligand (14-(2-{[3-({2-{[4-(cyanomethyl)phenyl]amino}-6-[(5-cyclopropyl-1H-pyrazol-3-yl)amino]-4-pyrimidinyl}amino) propyl]amino}-2-oxoethyl)-16,16,18,18-tetramethyl-6,7,7a,8a,9,10,16,18-octahydrobenzo [2″,3″]indolizino[8″,7″:5′,6′]pyrano [3′,2′:3,4]pyrido[1,2-a]indol-5-ium-2-sulfonate.
Test compounds were serially diluted in DMSO at 100 fold final concentrations in the assay (1% DMSO final). In each well of a 384-well Plate were dispensed 0.1 μL of compound solution (or DMSO for controls) followed by 5 μL of GST-hRIPK1 (8-327) at twice the final concentrations in assay buffer (50 mM HEPES pH 7.5, 10 mM NaCl, 50 mM MgCl2, 0.02% CHAPS, 0.5 mM DTT and 0.01% Pluronic F127). For negative control the enzyme addition was replaced by assay buffer only.
After addition of 5 μL of fluorescent-labeled ligand at twice the final concentrations in assay buffer, the plate was incubated at RT for […]. At the end, the binding was measured as FP value with the Envision (PerkinElmer) plate reader using filter for an excitation λ=531 nm FP and an emission λ=595 nm FP (S & P-pol).
Test compound inhibition was expressed as percent inhibition of internal assay controls. For concentration response curves, normalized data is fit and IC50 determined using XL-fit (IDBS) for Excel. IC50 were averaged to determine a mean value, for a minimum of two independent experiments.
Receptor interacting protein kinase 1 activity of exemplary compounds was determined according to the above general procedures.
Take `CC1(C)CCCN2CCC(c3cncc(F)c3)N2C1=O` (racemic) [Example 1, 3-(5-fluoro-3-pyridyl)-6,6-dimethyl-1,2,3,7,8,9-hexahydropyrazolo[1,2-a]diazepin-5-one]: the IC50 is less than 1 µM. For the molecule `CC1(C)CCCN2CCC(c3cncc(C#N)c3)N2C1=O` (racemic) [Example 9, 5-(6,6-dimethyl-5-oxo-1,2,3,7,8,9-hexahydropyrazolo[1,2-a]diazepin-3-yl)pyridine-3-carbonitrile], the IC50 was less than 1 µM. In turn, `CC1(C(F)F)CCCN2CCC(c3cncc(F)c3)N2C1=O` (racemic) [Example 11, 6-(difluoromethyl)-3-(5-fluoro-3-pyridyl)-6-methyl-1,2,3,7,8,9-hexahydropyrazolo[1,2-a]diazepin-5-one] yielded an IC50 of less than 1 µM.

On to `O=C1N2C(c3cncc(F)c3)CCN2CCCC12CC2` (racemic) [Example 16, 3-(5-fluoro-3-pyridyl)spiro[1,2,3,7,8,9-hexahydropyrazolo[1,2-a]diazepine-6,1′-cyclopropane]-5-one], for which the IC50 lay in the range of 1 to 30 µM. As to `CCC1(C(F)F)CCCN2CCC(c3cnc(C)cn3)N2C1=O` (racemic) [Example 18, 6-(difluoromethyl)-6-ethyl-3-(5-methylpyrazin-2-yl)-1,2,3,7,8,9-hexahydropyrazolo[1,2-a]diazepin-5-one], the IC50 is less than 1 µM. To `Cc1cnc(C2CCN3CCCC(C)(C)C(=O)N23)cn1` (single isomer, unassigned) [Example 2, 6,6-dimethyl-3-(5-methylpyrazin-2-yl)-1,2,3,7,8,9-hexahydropyrazolo[1,2-a]diazepin-5-one] belongs less than 1 µM; to `CC1(C)CCCN2CCC(c3cc(F)cc(F)c3)N2C1=O` (single isomer, unassigned) [Example 3, 3-(3,5-difluorophenyl)-6,6-dimethyl-1,2,3,7,8,9-hexahydropyrazolo[1,2-a]diazepin-5-one], less than 1 µM; to `CC1(C)CCCN2CCC(c3ccc(F)c(F)c3)N2C1=O` (single isomer, unassigned) [Example 4, 3-(3,4-difluorophenyl)-6,6-dimethyl-1,2,3,7,8,9-hexahydropyrazolo[1,2-a]diazepin-5-one], less than 1 µM. `CC1(C)CCCN2CCC(c3cccc(F)c3)N2C1=O` (single isomer, unassigned) [Example 5, 3-(3-fluorophenyl)-6,6-dimethyl-1,2,3,7,8,9-hexahydropyrazolo[1,2-a]diazepin-5-one]: the IC50 is less than 1 µM. Under `CC1(C(F)F)CCCN2CCC(c3cncc(F)c3)N2C1=O` (single isomer, unassigned) [Example 10, 6-(difluoromethyl)-3-(5-fluoro-3-pyridyl)-6-methyl-1,2,3,7,8,9-hexahydropyrazolo[1,2-a]diazepin-5-one] stands less than 1 µM; under `Cc1cnc(C2CCN3CCCC(C)(C(F)F)C(=O)N23)cn1` (single isomer, unassigned) [Example 12, 6-(difluoromethyl)-6-methyl-3-(5-methylpyrazin-2-yl)-1,2,3,7,8,9-hexahydropyrazolo[1,2-a]diazepin-5-one], less than 1 µM; under `Cc1cnc(C2CCN3CCCC(C)(C(F)F)C(=O)N23)cn1` (single isomer, unassigned) [Example 13, 6-(difluoromethyl)-6-methyl-3-(5-methylpyrazin-2-yl)-1,2,3,7,8,9-hexahydropyrazolo[1,2-a]diazepin-5-one], less than 1 µM. To `CC1(C(F)F)CCCN2CCC(c3cncc(C#N)c3)N2C1=O` (single isomer, unassigned) [Example 14, 5-[6-(difluoromethyl)-6-methyl-5-oxo-1,2,3,7,8,9-hexahydropyrazolo[1,2-a]diazepin-3-yl]pyridine-3-carbonitrile] belongs less than 1 µM; to `CC1(C(F)F)CCCN2CCC(c3cncc(C#N)c3)N2C1=O` (single isomer, unassigned) [Example 15, 5-[6-(difluoromethyl)-6-methyl-5-oxo-1,2,3,7,8,9-hexahydropyrazolo[1,2-a]diazepin-3-yl]pyridine-3-carbonitrile], less than 1 µM.

Take `CCC1(C(F)F)CCCN2CCC(c3cnc(C)cn3)N2C1=O` (single isomer, unassigned) [Example 17, 6-(difluoromethyl)-6-ethyl-3-(5-methylpyrazin-2-yl)-1,2,3,7,8,9-hexahydropyrazolo[1,2-a]diazepin-5-one]: the 50% inhibitory concentration (IC50) was less than 1 µM. To `CC1(C)CCCN2CCC(c3cc(F)cc(C#N)c3)N2C1=O` (stereo not drawn) [Example 6, 3-(6,6-dimethyl-5-oxo-1,2,3,7,8,9-hexahydropyrazolo[1,2-a]diazepin-3-yl)-5-fluoro-benzonitrile] belongs less than 1 µM; to `CC1(C)CCCN2CCC(c3ccc(C#N)cc3)N2C1=O` (stereo not drawn) [Example 7, 4-(6,6-dimethyl-5-oxo-1,2,3,7,8,9-hexahydropyrazolo[1,2-a]diazepin-3-yl)benzonitrile], less than 1 µM. Under `CCC1(C)COC[C@H]2CC[C@@H](c3cccc(F)c3)N2C1=O` (stereo partly drawn) [Example 8, (7S,9aR)-4-ethyl-7-(3-fluorophenyl)-4-methyl-1,3,7,8,9,9a-hexahydropyrrolo[2,1-c][1,4]oxazepin-5-one] stands 1 to 30 µM.
